Data reported in patent publication US8343759B2, “Mammalian cell line expressing inducible c-Src” (National University Corporation Chiba University, priority 2007, dated 2013).
“Also recorded” adds a separate entry of the source.

Tests used:
COS-I cells = assay: FRAP of Src-GFP on macropinosomes; assay type: cell-based; settings: cycloheximide-treated COS-I cells, pretreated 10 min with 1 mM NEM or 0.5% tannic acid
Procedure: A-D: FRAP analysis of Src-GFP was performed in COS-I cells treated with cycloheximide. Cells expressing Src-GFP were pretreated with nothing (control) (A), I mM NEM (B), or 0.5% tannic acid (C) for 10 min. Enclosed areas (yellow circles) were photobleached and cells were monitored at 5-sec (A and C) or 60-sec intervals (B) for 10 min. Mean fluorescence intensities on macropinosomes were measured, and results are means±SD (control, n=4; NEM, n=3; Tannic acid, n=5). N, nucleus. Bars 5 μm. E: Equal amounts of lysates from S100 and P100 fractions of Src-GFP-expressing COS-I cells were analyzed by Western blotting with anti-Src, anti-cPLA2 (cytosol marker), and anti-desmoglein (plasma membrane marker) antibodies.
For live-cell imaging, cells cultured in 35-mm glass-based dishes were transiently transfected with plasmid DNA on the preceding day. Time-lapse monitoring was performed using a Fluoview FV5OO with a 40×1.00 oil objective. Images were obtained at low power laser (0.3-3.0% laser) using the 488 nm line of an argon laser. FRAP was performed as described (Kasahara et at., 2004). If necessary, COS-I cells were treated with 200 μg/ml cycloheximide (Sigma-Aldrich) for 2 h before images were obtained. […] Mean fluorescence intensities were quantitated using Fluoview Tiempo time course version 4.2 software. […]

EGFR = EGFR (Homo sapiens, UniProt P00533); assay: EGFR activation by Western blotting of lysates with anti-pTyr; assay type: cell-based; settings: serum-starved HeLa cells pretreated with 5 μM SU6656, EGF for 15 min
Procedure: F: Lysates were analyzed by Western blotting with anti-Src[Y^418], anti-Src, anti-pTyr, and anti-actin antibodies. […] Cell lysates were prepared in Triton X-100 lysis buffer (50 mM HEPES, pH 7.4, 10% glycerol, 1% Triton X-100, 4 mM EDTA, 100 mM NaF, and 1 mM Na3VO4) containing protease inhibitors.

10T½ cells = assay: PMA-stimulated macropinocytosis (RITC-dextran-labeled macropinosomes); assay type: cell-based, mouse; settings: 10T½ cells pretreated with 5 μM SU6656 for 30 min, then 200 nM PMA plus 1 mg/ml RITC-dextran for 20 min
Procedure: Data represent means±SD from three independent experiments. […] For comparison, the open bar is a reproduction of the data of Src-CFP in FIG. 2D. B: COS-1 cells transfected with c-Src plus Src(SH4-Unique)-GFP were cultured for 24 h and visualized with anti-Src (red) immunofluorescence and GFP fluorescence (green). C: 10T½ cells transfected with Src(SH4-Unique)-GFP (control) were treated with 200 nM PMA plus 1 mg/ml RITC-dextran for 15 min (1 PMA). D: 10T½ cells expressing Src(SH4-Unique)-GFP were stimulated with 200 nM PMA and cells were monitored at 30-sec intervals. The time of PMA addition is indicated as 0 sec (00′00″). E: 10T½ cells expressing Lyn(SH4-Unique)-GFP were treated with 200 nM PMA for 30 min and imaged by GFP fluorescence and Nomarski optics. F: 10T½ cells were pretreated with 5 μM SU6656 or none for 30 min and then stimulated with 200 nM PMA plus 1 mg/ml RITC-dextran for 20 min. […] Data represent means±SD from three independent experiments. […] Arrows indicate macropinosomes. N, nucleus. Bars, 10 μm. Macropinosomes wider than 2 μm labeled by c-Src or mutants were counted. All values were expressed as means±D from three independent experiments. Rhodamine B-isothiocyanate (RITC)-dextran (Mr 70,000), PMA, and wortmannin were from Sigma-Aldrich. SU6656 (Blake et al., 2000) was from Calbiochem. EGF was a kind gift of M. N. Fukuda.

c-Src = target: T1, c-Src (Homo sapiens, UniProt P12931); assay: c-Src kinase activity in immunoprecipitates by Western blotting with anti-Src[pY418]; assay type: cell-based; settings: serum-starved HeLa cells pretreated with 5 μM SU6656, EGF for 15 min
T1 construct: endogenous in cells; host or cells: HeLa (serum-starved, EGF-stimulated)
Procedure: Results are expressed as mean values (fold) relative to the specific activity of c-Src in unstimulated control cells. […] F: Lysates were analyzed by Western blotting with anti-Src[Y^418], anti-Src, anti-pTyr, and anti-actin antibodies. […] Western blotting and immunoprecipitation were as described (Hirao et al., 1997; Mera et al., 1999; Yamaguchi et al., 2001; Kasahara et al., 2004). Cell lysates were prepared in Triton X-100 lysis buffer (50 mM HEPES, pH 7.4, 10% glycerol, 1% Triton X-100, 4 mM EDTA, 100 mM NaF, and 1 mM Na3VO4) containing protease inhibitors. For immunoprecipitation, lysates were incubated with protein G-Sepharose beads (Amersham) precoated with anti-Src (#327) overnight at 4° C.

HeLa cells = assay: EGF-induced macropinosome formation marked with Src(SH4-Unique)-GFP; assay type: cell-based, human; settings: serum-starved HeLa cells expressing Src(SH4-Unique)-GFP, pretreated 30 min with 5 μM SU6656 or 200 nM wortmannin, then 50 ng/ml EGF for 15 min
Procedure: During stimulation, cells were treated with 1 mg/ml RITC-dextran (B). White arrows indicate macropinosomes. […] The number of macropinosomes associated with Src(SH4-Unique)-GFP per 200 cells is shown. Data represent means±SD from three independent experiments. […] Equal amounts of lysates (input lysates) were analyzed by Western blotting with anti-pTyr and anti-actin antibodies. c-Src immunoprecipitates from lysates were analyzed by Western blotting with anti-Src[Y^418] and anti-Src antibodies. c-Src kinase activity was quantitated by measuring signal intensity using anti-Src[pY^418] antibody and normalized to the corresponding signal intensity detected by anti-Src. Results are expressed as mean values (fold) relative to the specific activity of c-Src in unstimulated control cells. […] The number of Src:(SH4-Unique)-GFP-labeled macropinosomes per 200 HeLa (left) or 100 A431 (right) cells was counted. Data represent means±SD from three independent experiments. […] F: Lysates were analyzed by Western blotting with anti-Src[Y^418], anti-Src, anti-pTyr, and anti-actin antibodies. […] White arrows indicate macropinosomes containing RITC-dextran. […] I: Co-localization of RITC-dextran with cathepsin D in macropinosomes was quantitated. […] Macropinosomes wider than 2 μm labeled by c-Src or mutants were counted. All values were expressed as means±D from three independent experiments. […]

T1 sequence (P12931 whole entry): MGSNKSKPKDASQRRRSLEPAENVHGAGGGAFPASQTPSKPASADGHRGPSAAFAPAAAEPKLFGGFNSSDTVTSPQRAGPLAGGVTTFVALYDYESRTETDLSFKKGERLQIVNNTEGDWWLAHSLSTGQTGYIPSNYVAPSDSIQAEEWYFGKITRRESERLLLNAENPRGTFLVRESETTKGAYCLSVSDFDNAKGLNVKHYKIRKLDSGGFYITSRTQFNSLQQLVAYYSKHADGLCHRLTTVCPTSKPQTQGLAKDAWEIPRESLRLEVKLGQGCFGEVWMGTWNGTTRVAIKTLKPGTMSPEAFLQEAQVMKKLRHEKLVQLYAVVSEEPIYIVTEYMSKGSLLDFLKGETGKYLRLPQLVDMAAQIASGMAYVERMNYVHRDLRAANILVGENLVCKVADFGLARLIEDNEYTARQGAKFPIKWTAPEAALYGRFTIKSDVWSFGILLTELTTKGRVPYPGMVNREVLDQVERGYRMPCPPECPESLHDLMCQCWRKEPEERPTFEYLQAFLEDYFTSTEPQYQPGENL
Chain of EGFR (P00533 25-1210): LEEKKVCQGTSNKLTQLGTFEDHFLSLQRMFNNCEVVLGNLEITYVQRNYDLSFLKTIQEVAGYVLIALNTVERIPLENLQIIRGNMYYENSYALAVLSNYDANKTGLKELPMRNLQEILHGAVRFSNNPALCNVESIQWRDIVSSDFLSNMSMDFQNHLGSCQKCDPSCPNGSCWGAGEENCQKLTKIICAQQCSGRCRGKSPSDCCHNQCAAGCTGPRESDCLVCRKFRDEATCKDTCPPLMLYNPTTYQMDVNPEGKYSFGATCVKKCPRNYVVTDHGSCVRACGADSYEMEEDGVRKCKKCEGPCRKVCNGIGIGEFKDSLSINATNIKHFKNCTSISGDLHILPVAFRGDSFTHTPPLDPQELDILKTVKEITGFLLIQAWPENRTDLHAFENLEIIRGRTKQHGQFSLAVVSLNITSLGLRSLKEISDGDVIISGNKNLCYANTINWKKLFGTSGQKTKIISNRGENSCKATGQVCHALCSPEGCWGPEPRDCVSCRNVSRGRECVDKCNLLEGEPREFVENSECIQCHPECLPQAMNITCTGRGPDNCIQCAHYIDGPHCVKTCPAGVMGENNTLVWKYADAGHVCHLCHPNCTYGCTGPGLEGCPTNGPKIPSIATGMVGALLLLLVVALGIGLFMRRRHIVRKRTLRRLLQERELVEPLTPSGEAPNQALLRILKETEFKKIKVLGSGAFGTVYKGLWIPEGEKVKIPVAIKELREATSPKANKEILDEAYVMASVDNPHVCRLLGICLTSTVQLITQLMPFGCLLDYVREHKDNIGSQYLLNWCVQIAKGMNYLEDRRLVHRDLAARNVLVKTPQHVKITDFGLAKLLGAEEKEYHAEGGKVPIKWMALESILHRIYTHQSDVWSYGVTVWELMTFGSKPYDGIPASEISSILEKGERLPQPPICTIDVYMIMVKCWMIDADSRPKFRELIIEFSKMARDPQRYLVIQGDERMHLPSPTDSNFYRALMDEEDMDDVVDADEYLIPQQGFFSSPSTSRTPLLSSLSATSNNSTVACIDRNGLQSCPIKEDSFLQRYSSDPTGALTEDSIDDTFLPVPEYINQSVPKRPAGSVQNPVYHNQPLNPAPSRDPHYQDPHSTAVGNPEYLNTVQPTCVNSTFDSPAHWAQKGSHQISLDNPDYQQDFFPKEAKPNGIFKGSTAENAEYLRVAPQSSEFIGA

Compound	inhibition of fluorescence recovery of Src-GFP on macropinosomes (COS-I cells)	effect on EGFR activation (EGFR)	inhibition of PMA-stimulated macropinocytosis (10T½ cells)	effect on c-Src activity (c-Src)	inhibition of EGF-induced macropinosome formation (HeLa cells)
CCN1C(=O)C=CC1=O [NEM, N-ethyl maleimide]	inhibited				
CN(C)S(=O)(=O)c1ccc2c(c1)/C(=C/c1cc3c([nH]1)CCCC3)C(=O)N2 [SU6656]		without affecting	not significant; also recorded: not inhibited; also recorded: did not inhibit	decreased c-Src activity below basal levels	partly inhibited
O=C(OC[C@H]1O[C@@H](OC(=O)c2cc(O)c(O)c(OC(=O)c3cc(O)c(O)c(O)c3)c2)[C@H](OC(=O)c2cc(O)c(O)c(OC(=O)c3cc(O)c(O)c(O)c3)c2)[C@@H](OC(=O)c2cc(O)c(O)c(OC(=O)c3cc(O)c(O)c(O)c3)c2)[C@@H]1OC(=O)c1cc(O)c(O)c(OC(=O)c2cc(O)c(O)c(O)c2)c1)c1cc(O)c(O)c(OC(=O)c2cc(O)c(O)c(O)c2)c1 [tannic acid]	partly inhibited				
